Measured values taken from PubChem BioAssay (NCI).
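GI50 is the concentration that inhibits growth by half. TGI: total growth inhibition.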

Columns and labels:
Experiment in all cases: DTP human tumour cell line panel, 384-well format
HOP-62 NSCLC = system: HOP-62 NSCLC
MDA-MB-231 breast = system: MDA-MB-231 breast
SF-268 CNS = system: SF-268 CNS
MDA-MB-435 melanoma = system: MDA-MB-435 melanoma
M14 melanoma = system: M14 melanoma
COLO 205 colon = system: COLO 205 colon
ACHN renal = system: ACHN renal
SF-539 CNS = system: SF-539 CNS
OVCAR-3 ovarian = system: OVCAR-3 ovarian
IGROV1 ovarian = system: IGROV1 ovarian
DU-145 prostate = system: DU-145 prostate
NCI/ADR-RES ovarian = system: NCI/ADR-RES ovarian
BT-549 breast = system: BT-549 breast
A498 renal = system: A498 renal
RXF 393 renal = system: RXF 393 renal
SW-620 colon = system: SW-620 colon
SK-OV-3 ovarian = system: SK-OV-3 ovarian
HCT-15 colon = system: HCT-15 colon
SF-295 CNS = system: SF-295 CNS
786-0 renal = system: 786-0 renal
NCI-H23 lung = system: NCI-H23 lung
UACC-257 melanoma = system: UACC-257 melanoma
SK-MEL-2 melanoma = system: SK-MEL-2 melanoma
A549 NSCLC = system: A549 NSCLC
HT29 colon = system: HT29 colon
NCI-H460 NSCLC = system: NCI-H460 NSCLC
MALME-3M melanoma = system: MALME-3M melanoma
T-47D breast = system: T-47D breast
SK-MEL-28 melanoma = system: SK-MEL-28 melanoma
RPMI-8226 leukemia = system: RPMI-8226 leukemia
NCI-H226 lung = system: NCI-H226 lung
OVCAR-8 ovarian = system: OVCAR-8 ovarian
UO-31 renal = system: UO-31 renal
MCF7 breast = system: MCF7 breast
SNB-19 CNS = system: SNB-19 CNS
K-562 leukemia = system: K-562 leukemia
HCT-116 colon = system: HCT-116 colon
U251 glioblastoma = system: U251 glioblastoma
PC-3 prostate = system: PC-3 prostate
CAKI-1 renal = system: CAKI-1 renal
KM12 colon = system: KM12 colon
HOP-92 NSCLC = system: HOP-92 NSCLC
SN12C renal = system: SN12C renal
UACC-62 melanoma = system: UACC-62 melanoma
HCC-2998 colon = system: HCC-2998 colon
LOX IMVI melanoma = system: LOX IMVI melanoma
TK-10 renal = system: TK-10 renal
OVCAR-4 ovarian = system: OVCAR-4 ovarian
OVCAR-5 ovarian = system: OVCAR-5 ovarian
SK-MEL-5 melanoma = system: SK-MEL-5 melanoma

Q: What does the source list for CC[C@@H]1c2c(C#N)ncn2-c2cnc(Nc3ccc(C(=O)NC4CCN(C5CCN(CC6CC6)CC5)CC4)cc3OC)nc2N1C1CCCC1?
A: GI50 (HOP-62 NSCLC): 28.6 nM; TGI (HOP-62 NSCLC): 76.6 nM; GI50 (MDA-MB-231 breast): 44.5 nM; TGI (MDA-MB-231 breast): 158 nM; GI50 (SF-268 CNS): 25.1 nM; TGI (SF-268 CNS): 197 nM; GI50 (MDA-MB-435 melanoma): 15.7 nM; TGI (MDA-MB-435 melanoma): 38.6 nM; GI50 (M14 melanoma): 30 nM; TGI (M14 melanoma): 81.9 nM; GI50 (COLO 205 colon): 19.8 nM; TGI (COLO 205 colon): 110 nM; GI50 (ACHN renal): 204 nM; TGI (ACHN renal): 767 nM; GI50 (SF-539 CNS): 36.5 nM; TGI (SF-539 CNS): 106 nM; GI50 (OVCAR-3 ovarian): 15.7 nM; TGI (OVCAR-3 ovarian): 48.4 nM; GI50 (IGROV1 ovarian): 44.9 nM; TGI (IGROV1 ovarian): 1660 nM; GI50 (DU-145 prostate): 23.9 nM; TGI (DU-145 prostate): 53.8 nM; GI50 (NCI/ADR-RES ovarian): 1110 nM; TGI (NCI/ADR-RES ovarian): 2310 nM; GI50 (BT-549 breast): 54.2 nM; TGI (BT-549 breast): 228 nM; GI50 (A498 renal): 123 nM; TGI (A498 renal): 254 nM; GI50 (RXF 393 renal): 19.7 nM; TGI (RXF 393 renal): 43.3 nM; TGI (SW-620 colon): 44.8 nM; GI50 (SK-OV-3 ovarian): 26.1 nM; TGI (SK-OV-3 ovarian): 87.5 nM; GI50 (HCT-15 colon): 137 nM; TGI (HCT-15 colon): 269 nM; GI50 (SF-295 CNS): 75.7 nM; TGI (SF-295 CNS): 1480 nM; GI50 ([…]-0 renal): 116 nM; TGI (786-0 renal): 241 nM; GI50 (NCI-H23 lung): 27.5 nM; TGI (NCI-H23 lung): 61.4 nM; GI50 (UACC-257 melanoma): 78.5 nM; TGI (UACC-257 melanoma): 201 nM; GI50 (SK-MEL-2 melanoma): 13.8 nM; TGI (SK-MEL-2 melanoma): 33.9 nM; GI50 (A549 NSCLC): 41.7 nM; TGI (A549 NSCLC): 171 nM; GI50 (HT29 colon): 22 nM; TGI (HT29 colon): 48.8 nM; GI50 (NCI-H460 NSCLC): 16.4 nM; TGI (NCI-H460 NSCLC): 35.1 nM; GI50 (MALME-3M melanoma): 134 nM; TGI (MALME-3M melanoma): 263 nM; GI50 (T-47D breast): 117 nM; TGI (T-47D breast): 241 nM; GI50 (SK-MEL-28 melanoma): 60.1 nM; TGI (SK-MEL-28 melanoma): 182 nM; GI50 (RPMI-8226 leukemia): 13.9 nM; TGI (RPMI-8226 leukemia): 31.5 nM; GI50 (NCI-H226 lung): 175 nM; TGI (NCI-H226 lung): 1310 nM; GI50 (OVCAR-8 ovarian): 21.7 nM; TGI (OVCAR-8 ovarian): 41.8 nM; GI50 (UO-31 renal): 181 nM; TGI (UO-31 renal): 322 nM; GI50 (MCF7 breast): 34.5 nM; TGI (MCF7 breast): 169 nM; GI50 (SNB-19 CNS): 38.7 nM; TGI (SNB-19 CNS): 269 nM; GI50 (K-562 leukemia): 21.1 nM; TGI (K-562 leukemia): 43.8 nM; GI50 (HCT-116 colon): 21.4 nM; TGI (HCT-116 colon): 107 nM; GI50 (U251 glioblastoma): 23.3 nM; TGI (U251 glioblastoma): 152 nM; GI50 (PC-3 prostate): 53.8 nM; TGI (PC-3 prostate): 302 nM; GI50 (CAKI-1 renal): 137 nM; TGI (CAKI-1 renal): 280 nM; GI50 (KM12 colon): 23.9 nM; TGI (KM12 colon): 74.9 nM; GI50 (HOP-92 NSCLC): 43.3 nM; TGI (HOP-92 NSCLC): 404 nM; GI50 (SN12C renal): 103 nM; TGI (SN12C renal): 356 nM; GI50 (UACC-62 melanoma): 32.8 nM; TGI (UACC-62 melanoma): 95.5 nM; GI50 (HCC-2998 colon): 20.9 nM; TGI (HCC-2998 colon): 48.7 nM; GI50 (LOX IMVI melanoma): 28.3 nM; TGI (LOX IMVI melanoma): 59.6 nM; GI50 (TK-10 renal): 317 nM; TGI (TK-10 renal): 1740 nM; GI50 (OVCAR-4 ovarian): 125 nM; TGI (OVCAR-4 ovarian): 273 nM; GI50 (OVCAR-5 ovarian): 53 nM; TGI (OVCAR-5 ovarian): 204 nM; GI50 (SK-MEL-5 melanoma): 17.2 nM; TGI (SK-MEL-5 melanoma): 65.6 nM
